Measured values reported in article PMC3857039, “First Quantitative Imaging of Organic Fluorine within Angiogenic Tissues by Particle Induced Gamma-Ray Emission (PIGE) Analysis: First PIGE Organic Fluorine Imaging” (Pharmaceutics, 2011).
Each block holds one compound with its values, some of them ahead of it. Where a SMILES comes first, the peptide text is derived from it. [ ]: non-standard residue; d: D form. The star is where a group is joined. X1 = FC(F)(F)C(F)(F)C(F)(F)C(F)(F)C(F)(F)C(F)(F)CCCOCCOCCOCCN*

Tests used:
[1] = test system: U87 human glioma cells tumor xenografted on the CAM; test: PIGE/RBS quantification of fluorine in sections of U87 glioma tumor implanted on the CAM after intravascular injection of fluorinated tracer; format: in vivo, chicken; conditions: for Average fluorine concentration, pathological tissue, tumor section (surrounding tissue) / Average fluorine concentration, pathological tissue, capillaries of tumor section / Average fluorine concentration, pathological tissue, Tumor: sacrifice 6 h after injection, PIGE, per g dry mass; for Average fluorine concentration, pathological tissue, Tumor: FDG 1.53 M
Experimental: (§1) In preparation for the intravascular injection, 274 mg of FDG is dissolved in 1 mL sterile PBS. For the polyfluorinated glucose solution, 10 mg of the probe was added to 1 mL of polypropylene glycol (MW = 400 g/mol). F13-CBO-P11 solutions were prepared in sterile PBS. For the latter, solutions were obtained by the addition of 20 mg and 35 mg of peptide in 1 mL sterile PBS.
U87 human glioma cells (ATCC) were selected for the study as an established model for malignant gliomas that form highly vascularized tumors. Cells were maintained in culture using Dulbecco's modified Eagle's medium (DMEM) with 10% FBS, L-glutamine (2 mmol L^−1), and antibiotics (penicillin 50 UI mL^−1, streptomycin 50 μg mL^−1). Cell culture was performed in a 37 °C incubator with humidified atmosphere and 5% CO2. Cells were grown to confluence, harvested after trypsinization, and re-suspended in serum-free DMEM for implantation.
(§2) Fertilized chicken eggs were incubated at 37 °C in a humidified atmosphere. On day 4 of incubation, a window was made in the shell in order to visualize the chorio allantoïc membrane (CAM). On embryonic day 10, in the tumor group, a ring was put on the CAM and U87 glioma cells (5 million cells per egg suspended in 20 μL of medium) were deposited on the CAM within the ring after gentle laceration of the surface. In the other group, a nylon grid was put on the CAM to allow normal tissue to grow on the grid. After 7 days of implantation (embryonic day 17), FDG, polyfluorinated glucose and F13-CBO-P11 solutions were then injected in a blood vessel of the CAM of each egg (100 μL per embryo). Embryos were sacrificed 6 hours after injection. All samples were removed and snap-frozen in liquid nitrogen-chilled isopentane at −160 °C. CAM samples and normal tissue (S1, Scheme 1) coming from nylon grid were then put on targets (2 mm-thick and 20 mm-diameter aluminium target with a 5 mm-hole in the centre) and freeze-dried during 3 days at−30 °C in a cryostat (CM3050S, Leica Microsystems). Tumors were conserved at −80 °C until sectioning. For tumor tissue, successive serial sections (at 100, 200 and 300 μm) were obtained from the CAM to the tumor (S2 to S4, Scheme 1) using the cryostat, put on targets and freeze-dried. After sample preparation, microphotographs were taken to monitor the experiment.
(§3) Particle Induced γ-ray Emission (PIGE) and Rutherford Backscattering Spectrometry (RBS) were performed simultaneously to determine trace elements quantitative distribution, such as F and Fe, and major element as C, N, and O determination, respectively (Figure1). Analyses were performed with proton beam energy at 3.4 MeV in order to benefit from a high cross section for the nuclear reaction for fluorine. Analyses were realized on zones of typically 850 × 850 μm in a scanning mode of the proton beam. The beam was focused onto the sample surface to a spot of 5 μm in diameter, resulting in a proton beam current of 500 pA as measured with a Faraday cup below the sample. Characteristics gamma rays emitted from elements of the target were detected with an ultralow energy planar germanium detector (surface of the Ge crystal is 100 mm², thickness 10 mm) placed at 45° from incident beam. The γ-ray detector was covered by a 100 μm thick carbon filter (hole 0.2% of the total filter surface), to protect the γ-ray detector from backscattered particles. The RBS measurements were performed using a PIPS detector (passivated implanted planar silicon) placed at 135° from the incident beam direction.
(§4) CaF2 micromatter standard (certified material from NIST) and a PVDF film (polyvinylidene difluoride, 25 μm thick) were used as external standard in order to verify the quantification process. γ-ray emission data were analyzed with the Supavisio software to create mask of interesting areas of selected chemical elements. RBS data were analyzed with SIMNRA code.
The quantification of fluorine was performed by comparative analysis with reference standard. […]

[2] = test system: chicken chorioallantoic membrane (CAM); test: PIGE/RBS quantification of fluorine in normal CAM tissue and capillaries after intravascular injection of fluorinated tracer; format: in vivo; conditions: for Average fluorine concentration, physiological tissue, CAM (surrounding tissue) / Average fluorine concentration, physiological tissue, Capillaries: 100 μL per embryo, sacrifice 6 h after injection, PIGE
Experimental: as §1, §2, §3, §4
The quantification of fluorine was performed by comparative analysis with reference standard. PVDF films were analyzed in order to simulate the composition and thickness of biological samples. PyMCA software was used to fit the 110 keV γ peak on PIGE spectra on a PVDF film and biological samples. The intensity of the peak in the PVDF was used to normalize yield in samples [14, 16].
The combination of PIGE and RBS quantitative data were used for mass normalization of y-ray emission, leading to element concentrations expressed in terms of μg of element per g of dry mass sample. […]

[3] = test system: U87 human glioma cells tumor xenografted on the CAM; test: PIGE/RBS quantification of fluorine in sections of U87 glioma tumor implanted on the CAM after intravascular injection of fluorinated tracer; format: in vivo, chicken; conditions: Sample 2, section S1 (tumor section); FDG 0.77 M in PBS, 100 μL per embryo, sacrifice 6 h after injection; PIGE; per g dry mass
[4] = Sample 6, serial tumor section S2, 20 mM in PBS, 100 μL per embryo
[5] = Sample 7, serial tumor section S2, 35 mM in PBS, 100 μL per embryo
[6] = Sample 8, section S1 (CAM sample, no tumor), 35 mM in PBS, per g dry mass
[7] = Sample 3, section S1 (CAM sample, no tumor), FDG 1.53 M in PBS, per g dry mass

Average fluorine concentration, pathological tissue, tumor section (surrounding tissue) ([1]; Sample 6, serial tumor section S1, 20 mM in PBS, 100 μL per embryo (0.49 mg fluorine)): 450±35 μg/g
Average fluorine concentration, pathological tissue, capillaries of tumor section ([1]; Sample 6, serial tumor section S1, 20 mM in PBS, 100 μL per embryo): 610±70 μg/g
Average fluorine concentration, pathological tissue, capillaries of tumor section [1, 4]: 360±50 μg/g
Average fluorine concentration, pathological tissue, tumor section (surrounding tissue) [1, 4]: 270±20 μg/g
Average fluorine concentration, pathological tissue, tumor section (surrounding tissue) ([1]; Sample 7, serial tumor section S1, 35 mM in PBS, 100 μL per embryo (0.85 mg fluorine)): 345±30 μg/g
Average fluorine concentration, pathological tissue, capillaries of tumor section ([1]; Sample 7, serial tumor section S1, 35 mM in PBS, 100 μL per embryo): 650±70 μg/g
Average fluorine concentration, pathological tissue, capillaries of tumor section [1, 5]: 460±45 μg/g
Average fluorine concentration, pathological tissue, tumor section (surrounding tissue) [1, 5]: 215±35 μg/g
Dose dependence of fluorine uptake ([1]; sample 6 (20 mM) versus sample 7 (35 mM)): not dose dependant
Fold higher fluorine concentration in capillaries than in surrounding tissue, tumor sections ([1]; samples 6 and 7, 20 and 35 mM): 1.5 times
Average fluorine concentration, physiological tissue, CAM (surrounding tissue) [2, 6]: 2050±175 μg/g
Average fluorine concentration, physiological tissue, Capillaries [2, 6]: 6570±555 μg/g
Fold higher fluorine concentration in capillaries than in surrounding tissue, normal tissue ([2]; sample 8, 35 mM): 3 times
SMILES: CC[C@H](C)[C@@H]1NC(=O)[C@H](Cc2c[nH]cn2)NC(=O)[C@H](CCC(N)=O)NC(=O)CNC(=O)[C@H](CCC(N)=O)NC(=O)[C@H](Cc2c[nH]cn2)NC(=O)[C@@H]2CCCN2C(=O)[C@H](CCCCN)NC(=O)[C@H]([C@@H](C)CC)NC(=O)[C@H](CCCNC(=N)N)NC(=O)[C@H](CCSC)NC(=O)[C@H]([C@@H](C)CC)NC(=O)[C@H](CCC(N)=O)NC(=O)[C@@H]2CCCN2C(=O)[C@@H](Cc2ccccc2)NC(=O)[C@H](CCC(=O)NCCOCCOCCOCCCC(F)(F)C(F)(F)C(F)(F)C(F)(F)C(F)(F)C(F)(F)F)NC(=O)CNC1=O [Compound F13-CBO-P11] (cyclo(E(X1)[dF]PQIMRIKPHQGQHIG))

Average fluorine concentration, pathological tissue, Tumor ([1]; Sample 3, serial tumor section S2, 100 μL per embryo): 1640±170 μg/g
Average fluorine concentration, pathological tissue, Tumor ([1]; Sample 3, serial tumor section S3, 100 μL per embryo): 1950±240 μg/g
Average fluorine concentration, pathological tissue, Tumor ([1]; Sample 3, serial tumor section S4, 100 μL per embryo): 1470±140 μg/g
Average fluorine concentration, pathological tissue, Tumor [3]: 1570±180 μg/g
Ratio of fluorine concentrations between capillaries and tissues ([2]; FDG 0.77 and 1.53 M): close to one
Average fluorine concentration within capillaries as well as in surrounding tissues (homogeneous distribution) ([2]; FDG 0.77 and 1.53 M, overall average of Table 1): about 1600 μg/g
Average fluorine concentration, physiological tissue, CAM ([2]; Sample 1, section S1 (CAM sample, no tumor), FDG 1.53 M in PBS, 100 μL per embryo into CAM blood vessel, embryonic day 17, sacrifice 6 h after injection, freeze-dried, PIGE 3.4 MeV, per g dry mass): 1560±180 μg/g
Average fluorine concentration, physiological tissue, Capillaries ([2]; Sample 1, section S1 (CAM sample, no tumor), FDG 1.53 M in PBS, per g dry mass): 960±100 μg/g
Average fluorine concentration, physiological tissue, CAM (surrounding tissue) [2, 7]: 1820±210 μg/g
Average fluorine concentration, physiological tissue, Capillaries [2, 7]: 1460±170 μg/g
SMILES: O=C[C@H]([18F])[C@@H](O)[C@H](O)[C@H](O)CO [FDG, 2-deoxy-2-[18F]fluoro-D-glucose]
